What was measured:
rats = assay: Footshock-induced freezing behavior test in rats; type: in vivo, rat; details: i.p. 24 h and 5 h before test
Description: Kunming mice (Certificate Number: A4CXK(Chuan)2003-16) from the Institute of Experimental Animals, People's Hospital of Sichuan Province, were used. They were 3-4 weeks old at the beginning of the experiment and weighed 25-30 g. ORG was prepared as described in Example 1. Animals were divided into drug administration groups with different doses of ORG, a vehicle control group, and a diazepam group (Jinyao Ltd. Co., Batch No. 106k1588) as positive control.
Footshock-induced freezing behavior: Animals received an i.p. injection of ORG or vehicle 24 h and 5 h before being placed in a standard conditioning chamber (Med Associates, USA) for a 10 min training session. Two, 4, 6, 8, and 10 min after the onset of the session, a footshock (0.8 mA, 2 s) was delivered through the grid floor of the chamber. The freezing time during the last 5 min were recorded. Rats were placed in the chamber again without footshock 24 h after the first training, and the freezing time was recorded.
Data analysis: The results of the test are expressed as mean±SEM. One-way ANOVA was used followed by the LSD test with SPSS 11 software. The significance level was set at P<0.05.

CMS model mice [1] = assay: FST in chronic unpredictable mild stress (CMS) model mice; type: in vivo, mouse; details: for Immobility time (s) (mean ± SEM): oral once a day for 7 days
Description: (§1) Kunming mice (Certificate Number: A4CXK(Chuan)2003-16) from the Institute of Experimental Animals, People's Hospital of Sichuan Province, were used. They were 3-4 weeks old at the beginning of experiments and weighed 25-30 g. ORG was prepared as described in Example 1. Animals were divided into experiment groups with different doses, a vehicle control group, and an imipramine group (Sigma, Batch No. 106k1588) as positive control.
(§2) CMS model: The chronic mild stresses that Kunming mice were subjected to were reversal of circadian rhythm, continuous light, cold, damp bedding, tilt cages, food and water restriction, and restraint. […] The stress period lasted for 8 weeks. In the last week, ORG was administered orally once a day for 7 consecutive days. The behavioral test was carried out 30 min after the last administration. The parameter tested was immobility time in the FST and TST in the CMS model mice. The methods of FST and TST and data analysis were as described above.

Sprague-Dawley rats = assay: Forced swim test (FST) in rats; type: in vivo, rat; details: for Immobility time (s) (mean ± SEM): i.g.
DD model mice = assay: FST in constant darkness (DD) model mice; type: in vivo, mouse; details: for Immobility time (s) (mean ± SEM): oral once a day for 1 week
Description: Kunming mice (Certificate Number: A4CXK(Chuan)2003-16) from the Institute of Experimental Animals, People's Hospital of Sichuan Province, were used. They were 3-4 weeks old at the beginning of the experiments and weighed 25-30 g. ORG was prepared as described in Example 1. Animals were divided into experimental groups with different doses, vehicle control groups, and an imipramine group (Sigma, Batch No. 106k1588) as positive control.
DD model in mice: Mice were kept under 24 h continuous dark conditions. The replacement of padding, addition of food and water, and other operations were undertaken in the condition that the intensity of red light was less than 1.0 lux. The period of this condition lasted for 28 days. In the last week, ORG was administered orally once a day for 1 week. The FST and TST were carried out 30 min after the last administration. Methods and data analysis were as described above.

CMS model mice [2] = assay: TST in chronic unpredictable mild stress (CMS) model mice; type: in vivo, mouse; details: for Immobility time (s) (mean ± SEM): oral once a day for 7 days
Description: as §1, §2

Kunming mice = assay: Forced swim test (FST) in mice
[3] = CMS mice, test 30 min after last dose, 1.25 mg/kg
[4] = Mus musculus, CMS model mice, ORG oral

SMILES: Cc1cc(O)cc(OC2OC(CO)C(O)C(O)C2O)c1 [ORG, orcinol-1-O-β-D-glucopyranoside]
- Duration of freezing (s) (mean ± S.E.) (rats; 5 mg/kg): 203.90 ± 34.09 s
- Duration of freezing (s) (mean ± S.E.) (rats; 20 mg/kg): 100.70 ± 21.78 s
- therapeutic index (TI) = TD50÷ED50 (CMS model mice [1]; CMS mice): > 2160
- Immobility time (s) (mean ± SEM) (CMS model mice [1]; CMS mice, 2.5 mg/kg): 177.00 ± 11.78 s
- Immobility time (s) (mean ± SEM) (CMS model mice [1]; CMS mice, 5 mg/kg): 177.50 ± 12.39 s
- Immobility time (s) (mean ± SEM) (CMS model mice [1]; CMS mice, 10 mg/kg): 170.84 ± 10.48 s
- Immobility time (s) (mean ± SEM) (CMS model mice [1]; CMS mice, 20 mg/kg): 164.95 ± 11.36 s
- Immobility time (s) (mean ± SEM) (CMS model mice [1]; [3]): 190.90 ± 12.94 s
- best dose for the antidepressant effect (CMS model mice [1]; CMS model mice, ORG oral): 20 mg/kg
- ED50 (CMS model mice [1]; [4]): 0.81 mg/kg
- dose of the best efficacy (Sprague-Dawley rats; ORG administered orally): 4 mg/kg
- ED50 (Sprague-Dawley rats; Rattus norvegicus, po, ORG administered orally): ~0.22 mg/kg
- Immobility time (s) (mean ± SEM) (Sprague-Dawley rats; 0.0625 mg/kg, given at 0 and 19 h after pre-test swim): 187.20 ± 11.97 s
- Immobility time (s) (mean ± SEM) (Sprague-Dawley rats; 0.125 mg/kg): 181.50 ± 8.19 s
- Immobility time (s) (mean ± SEM) (Sprague-Dawley rats; 0.1875 mg/kg): 138.90 ± 13.31 s
- Immobility time (s) (mean ± SEM) (Sprague-Dawley rats; 0.25 mg/kg): 121.05 ± 9.44 s
- Immobility time (s) (mean ± SEM) (Sprague-Dawley rats; 0.5 mg/kg): 113.70 ± 6.74 s
- Immobility time (s) (mean ± SEM) (Sprague-Dawley rats; 1 mg/kg): 96.87 ± 7.40 s
- Immobility time (s) (mean ± SEM) (Sprague-Dawley rats; 2 mg/kg): 91.60 ± 7.06 s
- Immobility time (s) (mean ± SEM) (Sprague-Dawley rats; 4 mg/kg): 84.40 ± 9.20 s
- Immobility time (s) (mean ± SEM) (Sprague-Dawley rats; 8 mg/kg): 94.30 ± 9.86 s
- Immobility time (s) (mean ± SEM) (Sprague-Dawley rats; 16 mg/kg): 91.40 ± 11.36 s
- Immobility time (s) (mean ± SEM) (Sprague-Dawley rats; 32 mg/kg): 107.26 ± 10.74 s
- Immobility time (s) (mean ± SEM) (Sprague-Dawley rats; 64 mg/kg): 105.90 ± 19.77 s
- Immobility time (s) (mean ± SEM) (Sprague-Dawley rats; 128 mg/kg): 103.00 ± 17.42 s
- therapeutic index = TD50÷ED50 (DD model mice; DD mice): > 1182
- Immobility time (s) (mean ± SEM) (DD model mice; DD mice, 2.5 mg/kg): 174.27 ± 11.89 s
- Immobility time (s) (mean ± SEM) (DD model mice; DD mice, 5 mg/kg): 161.70 ± 14.89 s
- Immobility time (s) (mean ± SEM) (DD model mice; DD mice, 10 mg/kg): 151.86 ± 8.89 s
- Immobility time (s) (mean ± SEM) (DD model mice; DD mice, 40 mg/kg): 156.60 ± 13.86 s
- Immobility time (s) (mean ± SEM) (DD model mice; DD mice, test 30 min after last dose, 1.25 mg/kg): 180.27 ± 10.36 s
- dose of the best efficacy (DD model mice; DD model mice, ORG oral): 10 mg/kg
- ED50 (DD model mice; Mus musculus, DD model mice, ORG oral): ~1.48 mg/kg
- therapeutic index (TI) = TD50÷ED50 (CMS model mice [2]; CMS mice): > 415
- Immobility time (s) (mean ± SEM) (CMS model mice [2]; CMS mice, 5 mg/kg): 146.30 ± 11.66 s
- Immobility time (s) (mean ± SEM) (CMS model mice [2]; CMS mice, 10 mg/kg): 145.31 ± 12.41 s
- Immobility time (s) (mean ± SEM) (CMS model mice [2]; CMS mice, 20 mg/kg): 140.69 ± 14.14 s
- Immobility time (s) (mean ± SEM) (CMS model mice [2]; [3]): 171.20 ± 13.02 s
- best dose for the antidepressant effect (CMS model mice [2]; CMS model mice, ORG oral): 20 mg/kg
- ED50 (CMS model mice [2]; [4]): ~4.22 mg/kg
- dose of the best efficacy (Kunming mice; FST mice, ORG i.g. 24 h and 5 h before test): 3 mg/kg
- Immobility time (s) (mean ± SEM) (Kunming mice; FST mice, i.g. 24 h and 5 h before test, 0.093 mg/kg): 169.35 ± 4.32 s
- Immobility time (s) (mean ± SEM) (Kunming mice; FST mice, i.g., 0.186 mg/kg): 155.30 ± 9.19 s
- Immobility time (s) (mean ± SEM) (Kunming mice; FST mice, i.g., 0.3725 mg/kg): 137.57 ± 6.41 s
- Immobility time (s) (mean ± SEM) (Kunming mice; FST mice, i.g., 0.75 mg/kg): 139.45 ± 7.04 s
- Immobility time (s) (mean ± SEM) (Kunming mice; FST mice, i.g., 1.5 mg/kg): 127.23 ± 6.63 s
- Immobility time (s) (mean ± SEM) (Kunming mice; FST mice, i.g., 3 mg/kg): 114.41 ± 6.23 s
- Immobility time (s) (mean ± SEM) (Kunming mice; FST mice, i.g., 6 mg/kg): 129.76 ± 5.99 s
- Immobility time (s) (mean ± SEM) (Kunming mice; FST mice, i.g., 12 mg/kg): 122.71 ± 5.56 s
- Immobility time (s) (mean ± SEM) (Kunming mice; FST mice, i.g., 24 mg/kg): 121.57 ± 6.13 s
- Immobility time (s) (mean ± SEM) (Kunming mice; FST mice, i.g., 48 mg/kg): 135.36 ± 4.60 s
- Immobility time (s) (mean ± SEM) (Kunming mice; FST mice, i.g., 96 mg/kg): 145.34 ± 5.39 s
- Immobility (% NS) (mean ± SEM) (Kunming mice; FST mice, oral 3 mg/kg twice in 24 h, recorded 5 h after last treatment (Table 7)): 64.03 ± 7.20 % NS
- onset of antidepressant effect after the second administration (Kunming mice; FST mice, oral 3 mg/kg twice, 19 h apart): 2.5 h
- maintenance of antidepressant effect (Kunming mice; FST mice, oral 3 mg/kg twice, 19 h apart, time after second administration): at least 72 h
- Immobility (% NS) (mean ± SEM) (Kunming mice; FST mice, oral 3 mg/kg, 1 administration in 24 h, recorded 5 h after last treatment): 83.57 ± 6.66 % NS
- Immobility (% NS) (mean ± SEM) (Kunming mice; FST mice, oral 3 mg/kg, 2 administrations in 24 h, recorded 5 h after last treatment (Table 6)): 64.98 ± 5.96 % NS
- Immobility (% NS) (mean ± SEM) (Kunming mice; FST mice, oral 3 mg/kg, 3 administrations in 24 h, recorded 5 h after last treatment): 65.65 ± 9.67 % NS
- Immobility (% NS) (mean ± SEM) (Kunming mice; FST mice, oral 3 mg/kg, 4 administrations in 24 h, recorded 5 h after last treatment): 89.81 ± 6.50 % NS
- Immobility (% NS) (mean ± SEM) (Kunming mice; FST mice, oral 3 mg/kg, 5 administrations in 24 h, recorded 5 h after last treatment): 91.26 ± 5.93 % NS
- Immobility (% NS) (mean ± SEM) (Kunming mice; FST mice, oral 6 mg/kg once in 24 h, recorded 5 h after treatment (Table 7)): 80.70 ± 4.64 % NS
- Immobility (% NS) (mean ± SEM) (Kunming mice; FST mice, oral, dose 6 mg/kg (3 mg/kg twice, 19 h apart), 2 weeks after last administration): 99.54 ± 5.54 % NS
- Immobility (% NS) (mean ± SEM) (Kunming mice; FST mice, oral, dose 6 mg/kg (3 mg/kg twice, 19 h apart), 2.5 h after last administration): 73.63 ± 4.21 % NS
- Immobility (% NS) (mean ± SEM) (Kunming mice; FST mice, oral, dose 6 mg/kg (3 mg/kg twice, 19 h apart), 5 h after last administration): 71.92 ± 6.05 % NS
- Immobility (% NS) (mean ± SEM) (Kunming mice; FST mice, oral, dose 6 mg/kg (3 mg/kg twice, 19 h apart), 24 h after last administration): 62.83 ± 6.59 % NS
- Immobility (% NS) (mean ± SEM) (Kunming mice; FST mice, oral, dose 6 mg/kg (3 mg/kg twice, 19 h apart), 72 h after last administration): 77.33 ± 6.07 % NS
- ED50 (Kunming mice; Mus musculus): ~0.22 mg/kg
- therapeutic index (TI) = TD50÷ED50 (Kunming mice; mice, FST): > 7955

From patent US8859508B2, “Application of 5-methyl-1,3-benzenediol or derivatives thereof in the preparation of medicines and functional foods for treatment or prevention of depression” (Kunming Institute of Botany, Chinese Academy of Sciences, priority 2007, dated 2014)
